Results as given in patent US20210388319A1, “EXPANSION OF HEMATOPOIETIC STEM CELLS” (Mesoblast International Sarl, priority 2018, published 2021).

Tests used:
[1] = system: CB CD34+ cells (cord blood derived CD34+ HSCs); assay: Co-culture of cord blood CD34+ cells with MPCs and small molecules, 4-colour flow cytometric analysis; format: cell-based, human; settings: for expansion of CD34+ cells with the primitive HSC phenotype CD34+CD45RA− CD90+CD49f+: day 10, presence of MPCs and HDACi versus absence of MPCs or a HDACi (FIG. 9)
Procedure: • Cells: CB CD34+ (Stem Cell Technologies) • Medium: StemSpan SFEM (StemCell Technologies) supplemented with: • Human low density lipoprotein (Stem Cell Technologies) 10 μg/ml • Growth Factors (‘SFT’): • rHu-SCF 100 ng/ml • rHu-FLT3Ligand 100 ng/ml • rHu-TPO 50 ng/ml • (All recombinant cytokines are from R&D Systems) • Small Molecules: • SR1 (500 nM); UM171 (35 nM); Trichostatin A (TSA, 50 nM); Valproic Acid (VPA, 500 μM) (all from Stem Cell Technologies) • Assay conditions: • Day −1 MPC (MCBCC006) plated at 50,000/well in 2×24-well plates in Alpha-MEM/10% FBS • Day 0 10,000 CD34+ cells per well plated into each well of two 24 well plates. MPC containing wells were first washed to remove FBS medium. • The remaining CD34+ cells were cultured at the same concentration in a T-25 flask in StemSpan/SFT/SR-1+ UM171. This was to provide bulk cells for set up of flow cytometry analysis and to define electronic compensation settings for multicolour analysis. • Day 3 All groups were fed by removing 1.5 mL of media and replacing with 2.0 mL of fresh media+additives. • Day 5 Flow cytometric analysis: 1.5 mL of culture media was harvested from each well. For the suspension (No MPG) groups this was achieved by first aspirating the medium up and down to completely suspend the CD34+ cells before removing 1.5 mL of the suspension. For the +MPG groups, the CD34+ cells were resuspended in such a way that the MPC feeder layer was left intact. After the cells were removed from each well, they were replaced with 2.0 mL of fresh media+additives. A cell count was performed on all wells. This was required to determine not only the incidence of populations identified by FACS analysis, but also their absolute number. • Day 8 All groups were fed by removing 2.0 mL of media and replacing with 2.0 mL of fresh media and additives. • Day 10 Flow cytometric analysis: The complete content of each well was harvested. For the suspension (No MPG) groups this was achieved by first aspirating the medium up and down to completely suspend the CD34+ cells before removing the suspension. For the +MPG groups, the CD34+ cells in suspension were first harvested (as described above for Day 5). CD34+ cells attached to the MPC layer were then detached by a brief exposure (5 mins) to 0.05% trypsin-EDTA in PBS at 37° C., the trypsin quenched in 10% FBS and the detached cells pooled with the previously harvested suspension fraction to represent the Day 10 harvest.
A 4-colour flow cytometric analysis was performed to allow identification and quantitation of CD34+ cells and relevant subpopulations including candidate hematopoietic stem cells (HSC) according to the phenotype CD34+CD45RA− CD90+CD49f+ described for cord blood (Notta et al., (2011) Science 333: 218-221). All antibody conjugates were used at concentrations recommended by the manufacturers.
As noted above, the bulk culture of CD34+ cells in StemSpan/SFT/SR-1+ UM171 was used at both Day 5 and Day 10 to establish settings for flow cytometric analysis and to establish compensation settings. Stains with the following antibody/antibody combinations were performed:
Cord blood derived CD34+ HSCs were cultured in the presence and absence of immunoselected MPCs in the presence of: […]

[2] = system: CD34+CD38-CD45RA− CD90+CD49f+ cells; assay: Colony-forming unit (CFU) assay in MethoCult H4435 Enriched of FACS-isolated cells; format: cell-based, human; settings: cells isolated by FACS after 10 days in co-culture with MPCs, SFV and VPA; colonies scored on day 14
Procedure: FIG. 11: CD34+CD38-CD45RA− CD90+CD49f+ cells isolated by FACS were cultured in MethoCult™ H4435 Enriched (Stem cell Technologies), and tested for colony forming efficiency on day 14 of culture. Overall colony forming efficiency was 0.42%.
CD34+CD38-CD45RA− CD90+CD49f+ cells were isolated by FACS after 10 days in co-culture with MPCs, SFV and VPA. These isolated cells were then cultured in MethoCult™ H4435 Enriched (Stem cell Technologies), which is a complete methylcellulose-based medium containing IL-3, IL-6, G-CSF, GM-CSF, SCF and EPO and useful for growth and enumeration of hematopoietic progenitor cells in colony-forming unit (CFU) assays). Colonies were scored on day 14 of culture and tested for colony forming efficiency. […] Overall colony forming efficiency was 0.42%.

| Compound | expansion of CD34+ cells with the primitive HSC phenotype CD34+CD45RA− CD90+CD49f+ [1] | number of CD34+CD45RA− CD90+CD49f+ cells ([1]; after 10 days in co-culture with MPCs, SFV and VPA (500 μM), start about 500 primitive cells) | number of CD34+ cells ([1]; after 10 days in co-culture with MPCs, SFV and VPA (500 μM), start about 10,000 CD34+ cells) | increase in the number of CD34+CD90+CD49f+ cells ([1]; over a 10 day period, co-culture with MPCs, SFV and VPA) [fold] | overall colony forming efficiency [2] [%] |
| --- | --- | --- | --- | --- | --- |
| CC(/C=C/C(=O)NO)=C\[C@@H](C)C(=O)c1ccc(N(C)C)cc1 [TSA, Trichostatin A] | substantially greater expansion |  |  |  |  |
| CCCC(CCC)C(=O)O [VPA, Valproic Acid] | substantially greater expansion | about 22,000 cells | about 800,000 cells | ~44 | 0.42 |
